Experimental data: patent US10654859B2, “Methanesulfonate polymorph of 5-type phosphodiesterase inhibitor and preparation method and applications thereof” (JINAN MEILUWEI BIOTECHNOLOGY CO., LTD., priority 2017, dated 2020)

Assay: Solubility test (Chinese Pharmacopoeia 2010 criteria)
Format: physicochemical
Settings: 25° C.±2° C.; for solubility in 95% ethanol (pharmacopoeia term) / solubility in water (pharmacopoeia term): observed within 30 minutes
Method: The regulations on solubility in the guide to the second volume of Chinese Pharmacopoeia 2010 edition are used as criteria.
Weigh samples ground to fine powder (sample B: the compound of formula A; sample C: the methanesulfonate polymorph of the compound of formula A prepared in Embodiment 1), put the samples into a certain volume of solvent at 25° C.±2° C., and vigorously shake the samples for 30 seconds every 5 minutes; observe the dissolution within 30 minutes, wherein if solute particles are not observed, the samples are completely dissolved.

With `CCCc1nn(C)c2c(=S)[nH]c(-c3cc(C(=S)N4CCN(C)CC4)ccc3OCC)nc12` [sample B, 5-[2-ethoxy-5-(4-methylpiperazin-1-ylthiocarbonyl)phenyl]-1-methyl-3-n-propyl-1,6-dihydro-pyrazolo[4,3-d]pyrimidin-7-thione] the “amount of 95% ethanol in which 1 g of sample is dissolved” value was over 10000 g, the “solubility in 95% ethanol (pharmacopoeia term)” value was “almost insoluble” and the “amount of water in which 1 g of sample is dissolved” value was over 10000 g. For the same compound, the “solubility in water (pharmacopoeia term)” value was “hardly soluble”.
For `CCCc1nn(C)c2c(=S)[nH]c(-c3cc(C(=S)N4CCN(C)CC4)ccc3OCC)nc12` [sample C, 5-[2-ethoxy-5-(4-methylpiperazin-1-ylthiocarbonyl)phenyl]-1-methyl 3-n-propyl-1,6-dihydro-pyrazolo[4,3-d]pyrimidin-7-thione methanesulfonate polymorph], the “amount of 95% ethanol in which 1 g of sample is dissolved” value was at most 90 g, the “solubility in 95% ethanol (pharmacopoeia term)” value was “slightly soluble” and the “amount of water in which 1 g of sample is dissolved” value was at most 800 g. The “solubility in water (pharmacopoeia term)” value was “slightly soluble”.
